# Source: ChEMBL document CHEMBL4152189, “Incorporation of nitric oxide donor into 1,3-dioxyxanthones leads to synergistic anticancer activity” (Eur J Med Chem, 2018)
# Activity calls are given as the source filed them. The rule behind the calls is not given here.
# How the values were obtained:
# [1] = system: L02; experiment: Induction of NO generation in human HL-7702 cells assessed as nitrite levels at 0.66 uM after 3 hrs by Griess assay (reference value: 11.6 +/- 1.2 uM); type: functional
# [2] = system: L02; experiment: Induction of NO generation in human HL-7702 cells assessed as nitrite levels at 0.66 uM after 24 hrs by Griess assay (reference value: 11.6 +/- 1.1 uM); type: functional
# [3] = system: HepG2; experiment: Induction of apoptosis in human HepG2 cells assessed as increase in cleaved caspase9 level up to 0.66 uM after 24 hrs by Western blot analysis; type: functional, cell-based
# [4] = system: MDA-MB-231; experiment: Growth inhibition of human MDA-MB-231 cells after 24 hrs by MTT assay; type: functional, cell-based; details: MDA-MB-231, 24 h
# [5] = system: HepG2; experiment: Induction of apoptosis in human HepG2 cells assessed as inhibition of p53-MDM2 interaction by measuring p53/MDM2 ratio at 1 uM after 24 hrs by Western blot analysis (reference value: 0.48); type: functional
# [6] = system: HepG2; experiment: Induction of NO generation in human HepG2 cells assessed as nitrite levels at 0.33 uM after 24 hrs by Griess assay (reference value: 12.8 +/- 1.7 uM); type: functional
# [7] = system: HepG2; experiment: Induction of NO generation in human HepG2 cells assessed as nitrite levels at 0.16 uM after 48 hrs by Griess assay (reference value: 12.8 +/- 1.7 uM); type: functional
# [8] = system: HepG2; experiment: Induction of NO generation in human HepG2 cells assessed as nitrite levels at 0.16 uM after 60 hrs by Griess assay (reference value: 12.8 +/- 1.5 uM); type: functional
# [9] = system: HepG2; experiment: Induction of NO generation in human HepG2 cells assessed as nitrite levels at 0.33 uM after 48 hrs by Griess assay (reference value: 12.8 +/- 1.7 uM); type: functional
# [10] = system: HepG2; experiment: Induction of NO generation in human HepG2 cells assessed as nitrite levels at 0.66 uM after 48 hrs by Griess assay (reference value: 12.8 +/- 1.7 uM); type: functional
# [11] = system: L02; experiment: Induction of NO generation in human HL-7702 cells assessed as nitrite levels at 0.66 uM after 12 hrs by Griess assay (reference value: 11.8 +/- 1.2 uM); type: functional
# [12] = system: HepG2; experiment: Induction of NO generation in human HepG2 cells assessed as nitrite levels at 0.16 uM after 1 hr by Griess assay (reference value: 12.9 +/- 1.5 uM); type: functional
# [13] = system: L02; experiment: Growth inhibition of human HL-7702 cells after 24 hrs by MTT assay; type: cell-based; details: L02, 24 h
# [14] = system: HepG2; experiment: Induction of NO generation in human HepG2 cells assessed as nitrite levels at 0.33 uM after 1 hr by Griess assay (reference value: 12.9 +/- 1.5 uM); type: functional
# [15] = system: HepG2; experiment: Induction of NO generation in human HepG2 cells assessed as nitrite levels at 0.66 uM after 24 hrs by Griess assay (reference value: 12.8 +/- 1.7 uM); type: functional
# [16] = system: HepG2; experiment: Induction of apoptosis in human HepG2 cells assessed as late apoptotic/necrotic cells at 0.66 uM after 24 hrs by Annexin-V/propidium iodide staining-based flow cytometric analysis; type: functional
# [17] = system: HepG2; experiment: Induction of NO generation in human HepG2 cells assessed as nitrite levels at 0.66 uM after 3 hrs by Griess assay (reference value: 12.8 +/- 1.5 uM); type: functional
# [18] = system: HepG2; experiment: Cell cycle arrest in human HepG2 cells assessed as accumulation at S phase after 24 hrs by propidium iodide/RNAse staining-based flow cytometric analysis; type: functional
# [19] = system: HepG2; experiment: Induction of apoptosis in human HepG2 cells assessed as increase in cleaved caspase3 level up to 0.66 uM after 24 hrs by Western blot analysis; type: functional, cell-based
# [20] = system: HepG2; experiment: Induction of apoptosis in human HepG2 cells assessed as increase in cleaved PARP level up to 0.66 uM after 24 hrs by Western blot analysis; type: functional, cell-based
# [21] = system: HepG2; experiment: Induction of NO generation in human HepG2 cells assessed as nitrite levels at 0.16 uM after 3 hrs by Griess assay (reference value: 12.8 +/- 1.5 uM); type: functional
# [22] = system: HepG2; experiment: Cell cycle arrest in human HepG2 cells assessed as accumulation at S phase at 0.16 to 0.66 uM after 24 hrs by propidium iodide/RNAse staining-based flow cytometric analysis; type: functional
# [23] = system: L02; experiment: Induction of NO generation in human HL-7702 cells assessed as nitrite levels at 0.66 uM after 1 hr by Griess assay (reference value: 11.6 +/- 1.1 uM); type: functional
# [24] = system: HepG2; experiment: Induction of apoptosis in human HepG2 cells at 0.66 uM after 24 hrs by Annexin-V/propidium iodide staining-based flow cytometric analysis; type: functional
# [25] = system: HepG2; experiment: Cell cycle arrest in human HepG2 cells assessed as accumulation at S phase at 0.66 uM after 24 hrs by propidium iodide/RNAse staining-based flow cytometric analysis relative to control; type: functional
# [26] = system: HepG2; experiment: Induction of apoptosis in human HepG2 cells assessed as early apoptotic cells at 0.33 uM after 24 hrs by Annexin-V/propidium iodide staining-based flow cytometric analysis; type: functional
# [27] = system: HepG2; experiment: Induction of apoptosis in human HepG2 cells at 0.16 uM after 24 hrs by Annexin-V/propidium iodide staining-based flow cytometric analysis; type: functional
# [28] = system: L02; experiment: Induction of NO generation in human HL-7702 cells assessed as nitrite levels at 0.66 uM after 48 hrs by Griess assay (reference value: 11.6 +/- 1.1 uM); type: functional
# [29] = system: L02; experiment: Induction of NO generation in human HL-7702 cells assessed as nitrite levels at 0.66 uM after 6 hrs by Griess assay (reference value: 11.8 +/- 1.1 uM); type: functional
# [30] = system: HepG2; experiment: Growth inhibition of human HepG2 cells after 24 hrs by MTT assay; type: functional, cell-based; details: HepG2, 24 h
# [31] = Selectivity index, ratio of IC50 for human HL-7702 cells to IC50 for human HepG2 cells; type: toxicity; details: HL-7702 cells versus HepG2 cells, read-out: Ratio IC50
# [32] = system: HepG2; experiment: Cell cycle arrest in human HepG2 cells assessed as accumulation at S phase at 0.66 uM after 24 hrs by propidium iodide/RNAse staining-based flow cytometric analysis; type: functional
# [33] = system: MCF7; experiment: Growth inhibition of human MCF7 cells after 24 hrs by MTT assay; type: functional, cell-based; details: MCF7, 24 h
# [34] = system: HepG2; experiment: Induction of NO generation in human HepG2 cells assessed as nitrite levels at 0.33 uM after 60 hrs by Griess assay (reference value: 12.8 +/- 1.5 uM); type: functional
# [35] = system: HepG2; experiment: Induction of NO generation in human HepG2 cells assessed as nitrite levels at 0.16 uM after 12 hrs by Griess assay (reference value: 12.7 +/- 1.8 uM); type: functional
# [36] = system: L02; experiment: Induction of NO generation in human HL-7702 cells assessed as nitrite levels at 0.66 uM after 60 hrs by Griess assay (reference value: 11.8 +/- 1.3 uM); type: functional
# [37] = system: HepG2; experiment: Induction of NO generation in human HepG2 cells assessed as nitrite levels at 0.66 uM after 6 hrs by Griess assay (reference value: 12.6 +/- 1.1 uM); type: functional
compound,measurement,setting,value
COc1cccc2oc3cc(OCCCCCO[N+](=O)[O-])cc(O)c3c(=O)c12,Activity,[1],15.1 µM
same,Activity,[2],19.4 µM
same,Activity,[3],Dose-dependent effect
same,IC50,[4],0.57 µM
same,Ratio,[5],6.46
same,Activity,[6],35.1 µM
same,Activity,[7],21.3 µM
same,Activity,[8],15.7 µM
same,Activity,[9],26.6 µM
same,Activity,[10],28.1 µM
same,Activity,[11],19.3 µM
same,Activity,[12],15.6 µM
same,IC50,[13],377 µM
same,Activity,[14],19.3 µM
same,Activity,[15],39.1 µM
same,Activity,[16],41.7%
same,Activity,[17],25.7 µM
same,Activity,[18],Dose-dependent effect
same,Activity,[19],Dose-dependent effect
same,Activity,[20],Dose-dependent effect
same,Activity,[21],18.8 µM
same,Activity,[22],Active
same,Activity,[23],14.2 µM
same,Activity,[24],86.8%
same,Activity,[25],93.1%
same,Activity,[26],64.8%
same,Activity,[27],4.6%
same,Activity,[28],16.2 µM
same,Activity,[29],17.1 µM
same,IC50,[30],0.33 µM
same,selectivity ratio,[31],1140
same,Activity,[32],56.2%
same,IC50,[33],33.1 µM
same,Activity,[34],18.2 µM
same,Activity,[35],25.7 µM
same,Activity,[36],14.5 µM
same,Activity,[37],31.4 µM
